The values that follow are results of earlier work, collected in patent US11192861B2, “Human plasma kallikrein inhibitors” (BioCryst Pharmaceuticals, Inc., priority 2014, dated 2021).

The subject of the series is hereditary angioedema (HAE).

Turning to `NC(N)=NCCC[C@@H](N)C(=O)N[C@@H](CCCN=C(N)N)C(=O)N1CCC[C@H]1C(=O)N1C[C@H](O)C[C@H]1C(=O)NCC(=O)N[C@@H](Cc1cccs1)C(=O)N[C@@H](CO)C(=O)N1Cc2ccccc2C[C@@H]1C(=O)N1[C@H](C(=O)N[C@@H](CCCN=C(N)N)C(=O)O)C[C@@H]2CCCC[C@@H]21` [Icatibant], the “effectiveness in treating HAE” value (in vivo) was “effective in treating HAE”.
With ecallantide [DX-88], where the note is “patients with HAE”, the “edema in patients with hereditary angioedema” value was “alleviates edema”.
